Common to all, as to assay type: biochemical
Test [1] has as its target T1, norepinephrine (NE) transport (Rattus norvegicus, UniProt Q63380).
T1 construct: synaptosomal preparations were made from either whole brain (5-HT), striatum (DA) or hypothalamus (NE); from tissue; host or cells: rat hypothalamus synaptosomes
Description: Inhibition of [3H]NE uptake in rat hypothalamus synaptosomes. The note with it: for inhibition at 0.5 µM: read-out: Uptake Inhibition % at 500 nM NE; for Uptake Inhibition % at 500 nM NE: 500 nM test compound, rat hypothalamus synaptosomes, [3H]NE, 20 min at 37° C. Here is the method:
(§1) The effects of arylbicyclo[3.1.0]hexylamines of the invention for inhibiting transport of norepinephrine (NE) and/or dopamine (DA) and/or serotonin (5-HT) were evaluated using preparations of synaptosomes from different regions of the rat brain according to previously-reported techniques.
(§2) Whole brains were obtained from normal rats, and synaptosomal preparations were made from either whole brain (5-HT), striatum (DA) or hypothalamus (NE) by gentle disruption in 10 volumes (w/v) of 0.32 M sucrose (0-4° C.) using a Teflon-glass homogenizer. The homogenate was then centrifuged at 1000×g for 10 min. The supernatant was retained and centrifuged at 23000 g for 20 min. The resulting pellet was gently resuspended in 200 volumes of 0.32 M sucrose (0-4° C.) using a teflon-glass homogenizer. Aliquots (250 μL) of this preparation were added to tubes, along with 0.2 μCi/mL of [^3H]5-HT, [^3H]DA, or [^3H]NE, 200 μL of selected 1-arylbicyclo[3.1.0]hexanamine test compounds (to yield final concentrations of 500 nM) and 1 mL of Krebs-Ringer bicarbonate buffer (pH 7.4). […] At the end of this period, the assay was terminated by rapid filtration over Whatman GF/C glass fiber filters. The filters were rinsed 3 times with 4 ml of Krebs-Ringer bicarbonate buffer (0-4° C.), and the radioactivity retained on the filters was measured by liquid scintillation spectrometry.

For test [2], the target named is T2, serotonin (5-HT) transport (Rattus norvegicus, UniProt P31652). Description: Inhibition of [3H]5-HT uptake in rat whole brain synaptosomes. The note with it: for inhibition at 0.5 µM: read-out: Uptake Inhibition % at 500 nM 5-HT; for Uptake Inhibition % at 500 nM 5-HT: 500 nM test compound, rat whole brain synaptosomes, [3H]5-HT, 15 min at 37° C. As for the experimental part:
as §1, §2

Test [3] concerns the target T3, dopamine (DA) transport (Rattus norvegicus, UniProt P23977). Description: Inhibition of [3H]DA uptake in rat striatum synaptosomes. More on the design: synaptosomal preparations were made from either whole brain (5-HT), striatum (DA) or hypothalamus (NE); from tissue; host or cells: rat striatum synaptosomes. The settings on record: for inhibition at 0.5 µM: read-out: Uptake Inhibition % at 500 nM DA; for Uptake Inhibition % at 500 nM DA: 500 nM test compound, 15 min at 37° C. As for the experimental part:
as §1
as §2, with “([…])” for “(to yield final concentrations of 500 nM)”
Target sequence in this assay (P23977 whole entry): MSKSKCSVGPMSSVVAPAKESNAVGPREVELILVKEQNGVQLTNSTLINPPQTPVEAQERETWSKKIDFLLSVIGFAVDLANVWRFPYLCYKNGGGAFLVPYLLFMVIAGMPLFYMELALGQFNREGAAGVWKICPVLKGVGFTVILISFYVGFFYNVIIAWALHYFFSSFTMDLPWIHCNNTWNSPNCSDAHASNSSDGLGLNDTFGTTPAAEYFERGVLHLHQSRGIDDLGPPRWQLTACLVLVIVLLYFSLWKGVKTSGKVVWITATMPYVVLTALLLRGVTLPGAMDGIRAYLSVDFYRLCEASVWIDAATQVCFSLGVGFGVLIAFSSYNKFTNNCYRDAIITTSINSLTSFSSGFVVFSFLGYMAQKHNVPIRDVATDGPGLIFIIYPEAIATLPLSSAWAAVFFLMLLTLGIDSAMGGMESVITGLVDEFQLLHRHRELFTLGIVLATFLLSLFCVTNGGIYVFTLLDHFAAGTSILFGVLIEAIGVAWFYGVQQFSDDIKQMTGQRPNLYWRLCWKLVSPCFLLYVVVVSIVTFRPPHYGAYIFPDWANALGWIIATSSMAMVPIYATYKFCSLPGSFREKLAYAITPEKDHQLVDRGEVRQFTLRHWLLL

In test [4] the target is T3, dopamine (DA) transport. The test is described as above. As for the experimental part:
as §1
as §2, with “([…])” for “(to yield final concentrations of 500 nM)”
Target sequence in this assay (P23977 whole entry, looked up): as the sequence (P23977 whole entry) above

Test [5] deals with T2, serotonin (5-HT) transport. Description: Inhibition of [3H]5-HT uptake in rat whole brain synaptosomes.
Test [6] deals with T1, norepinephrine (NE) transport. Description: Inhibition of [3H]NE uptake in rat hypothalamus synaptosomes.
[7] abbreviates: rat striatum synaptosomes, [3H]DA, read-out: Uptake IC50 (nM) DA.
Setting [8] is: rat striatum synaptosomes, [3H]DA.

Read-outs that look alike come from different tables or passages of the source.

T1 sequence (Q63380 1-617): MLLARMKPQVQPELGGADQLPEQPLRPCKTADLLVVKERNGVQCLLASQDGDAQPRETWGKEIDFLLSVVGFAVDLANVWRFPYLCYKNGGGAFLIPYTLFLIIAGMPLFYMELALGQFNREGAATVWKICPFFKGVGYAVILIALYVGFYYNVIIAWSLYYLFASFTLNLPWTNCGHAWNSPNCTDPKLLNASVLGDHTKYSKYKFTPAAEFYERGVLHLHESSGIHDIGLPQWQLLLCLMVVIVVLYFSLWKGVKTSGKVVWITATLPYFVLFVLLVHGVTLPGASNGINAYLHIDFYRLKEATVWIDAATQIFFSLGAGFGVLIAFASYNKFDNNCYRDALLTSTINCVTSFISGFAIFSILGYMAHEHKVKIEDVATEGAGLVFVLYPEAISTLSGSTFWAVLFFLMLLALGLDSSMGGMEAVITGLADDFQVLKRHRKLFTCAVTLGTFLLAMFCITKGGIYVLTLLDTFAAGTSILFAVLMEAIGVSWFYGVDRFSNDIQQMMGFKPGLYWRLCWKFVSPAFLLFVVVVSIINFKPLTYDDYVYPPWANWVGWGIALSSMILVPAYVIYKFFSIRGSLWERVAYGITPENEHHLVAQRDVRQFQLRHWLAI
T2 sequence (P31652 whole entry): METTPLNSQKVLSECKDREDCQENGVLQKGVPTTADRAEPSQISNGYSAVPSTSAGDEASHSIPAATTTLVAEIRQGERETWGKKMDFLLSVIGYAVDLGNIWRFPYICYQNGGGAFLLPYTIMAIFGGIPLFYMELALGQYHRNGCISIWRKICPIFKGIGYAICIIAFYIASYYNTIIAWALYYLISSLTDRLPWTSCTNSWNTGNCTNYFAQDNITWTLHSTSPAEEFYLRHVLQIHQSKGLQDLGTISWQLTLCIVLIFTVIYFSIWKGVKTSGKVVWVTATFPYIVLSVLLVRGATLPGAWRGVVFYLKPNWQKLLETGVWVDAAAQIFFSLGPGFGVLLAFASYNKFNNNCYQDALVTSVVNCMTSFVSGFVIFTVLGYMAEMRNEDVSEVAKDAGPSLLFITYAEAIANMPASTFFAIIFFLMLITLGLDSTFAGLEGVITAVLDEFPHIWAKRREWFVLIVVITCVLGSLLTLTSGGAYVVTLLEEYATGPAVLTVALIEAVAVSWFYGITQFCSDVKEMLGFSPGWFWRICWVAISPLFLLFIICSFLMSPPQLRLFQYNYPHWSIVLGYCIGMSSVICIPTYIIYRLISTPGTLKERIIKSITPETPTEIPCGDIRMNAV

Take `CN(C)C1CCC2(c3ccc(Cl)c(Cl)c3)CC12` (stereo not shown): the results for the inhibition at 0.5 µM (in test [1]; in test [2]; on dopamine (DA) transport [3]) were 29%, 95% and 34%, respectively.
Taken in the same sequence, the figures for `CNC1CC2CC2(c2ccc(C)cc2)C1` (stereo not shown) [N-methyl-1-p-tolylbicyclo[3.1.0]hexan-3-amine] were 73%, 69% and 43%.
`NC1C[C@H]2C[C@@]2(c2ccc(Cl)c(Cl)c2)C1` (stereo partly shown): the IC50 on dopamine (DA) transport [4] was 0.06 µM.
Regarding `CNC1CCC2(c3ccc(C)cc3)CC12` (stereo not shown), the IC50 in test [1] amounted to 0.313 µM; in test [2], 1.19 µM; at dopamine (DA) transport [3], 858 nM. Moreover, the inhibition at 0.5 µM was found to be 89% in test [1], 37% in test [2] and 63% at dopamine (DA) transport [3].
Take `CNC1CCC2CC21c1ccc(Cl)c(Cl)c1` (stereo not shown) [1-(3,4-dichlorophenyl)-N-methylbicyclo[3.1.0]hexan-2-amine]: the IC50 in test [1] turned out to be 0.018 µM; in test [5] it was 3680 nM; against dopamine (DA) transport [3], 3 nM. Further, the inhibition at 0.5 µM was determined as 94% in test [1], 15% in test [2] and 101% at dopamine (DA) transport [3].
Take `Cc1ccc(C23CC2CCC3N)cc1` (stereo not shown) [1-p-tolylbicyclo[3.1.0]hexan-2-amine]: the inhibition at 0.5 µM in test [1] came to 14%; in test [2], 20%; at dopamine (DA) transport [3] it was 18%.
For `Cc1ccc(C23CC(N)CC2C3)cc1` (stereo not shown) [1-p-tolylbicyclo[3.1.0]hexan-3-amine], in that order: 38%, 21% and 44%.
Taken in the same sequence, the figures for `CNC1CCC2(c3ccc4ccccc4c3)CC12` (stereo not shown) were 47%, 90% and 45%.
Taken in the same sequence, the figures for `CNC1CCC2(c3cccc4ccccc34)CC12` (stereo not shown) were 49%, 90% and 29%.
With `CN(C)C1CCC2CC21c1ccc(Cl)c(Cl)c1` (stereo not shown) [1-(3,4-dichlorophenyl)-N,N-dimethylbicyclo[3.1.0]hexan-2-amine], the results for the IC50 (in test [1]; in test [2]; against dopamine (DA) transport [3]) were 0.011 µM, 1.24 µM and 9 nM, respectively. Moreover, the inhibition at 0.5 µM came out at 96% in test [1], 38% in test [2] and 99% on dopamine (DA) transport [3].
As to `NC1CC2CC2(c2ccc(Cl)c(Cl)c2)C1` (stereo not shown) [1-(3,4-dichlorophenyl)bicyclo[3.1.0]hexan-3-amine], the inhibition at 0.5 µM came to 76% in test [1], 89% in test [2] and 77% on dopamine (DA) transport [3]. Moreover, the half-inhibitory concentration (IC50) in test [5] is 38 nM; in test [6] it was 126 nM; on dopamine (DA) transport [3] (setting [7]), 111 nM.
Take `Cc1ccc(C23CCC(N(C)C)C2C3)cc1` (stereo not shown): the inhibition at 0.5 µM is 57% in test [1], 44% in test [2] and 55% on dopamine (DA) transport [3].
With `Cc1ccc(C23CC(N(C)C)CC2C3)cc1` (stereo not shown) [N,N-dimethyl-1-p-tolylbicyclo[3.1.0]hexan-3-amine], the inhibition at 0.5 µM in test [1] turned out to be 50%; in test [2], 66%; at dopamine (DA) transport [3] it was 0%.
Taken in the same sequence, the figures for `CN(C)C1CCC2(c3ccc4ccccc4c3)CC12` (stereo not shown) were 26%, 96% and 42%.
For the compound `CNC1CCC2(c3ccc(Cl)c(Cl)c3)CC12` (stereo not shown), the IC50 was 0.444 µM in test [1], 0.075 µM in test [2] and 360 nM against dopamine (DA) transport [3]. The results for the inhibition at 0.5 µM (in test [1]; in test [2]; on dopamine (DA) transport [3]) were 63%, 94% and 56%, respectively.
In the case of 5-p-tolylbicyclo[3.1.0]hexan-2-amine, the “Uptake Inhibition % at 500 nM NE” value in test [1] is listed as 42%. Besides, the “Uptake Inhibition % at 500 nM 5-HT” value in test [2] amounted to 74%. Moreover, the “Uptake Inhibition % at 500 nM DA” value at dopamine (DA) transport [3] (setting [8]) is on record as 39%.
`Cc1ccc(C23CC2CCC3N(C)C)cc1` (stereo not shown) [N,N-dimethyl-1-p-tolylbicyclo[3.1.0]hexan-2-amine]: the figures for the IC50 (in test [1]; in test [2]; against dopamine (DA) transport [3]) were 2.09 µM, > 5 µM and 335 nM, respectively. In addition, the inhibition at 0.5 µM stood at 71% in test [1], 0% in test [2] and 70% on dopamine (DA) transport [3].
Regarding `NC1C[C@H]2C[C@@]2(c2cccc3ccccc23)C1` (stereo partly shown), the inhibition at 0.5 µM in test [1] stood at 76%; in test [2] it was 65%; at dopamine (DA) transport [3] it was 53%. In addition, the half-maximal inhibitory concentration (IC50) was found to be 425 nM in test [5], 282 nM in test [6] and 496 nM on dopamine (DA) transport [3] (setting [7]).
With `NC1C[C@@H]2C[C@]2(c2ccc(Cl)c(Cl)c2)C1` (stereo partly shown), the values for the inhibition at 0.5 µM (in test [1]; in test [2]; on dopamine (DA) transport [3]) were 59%, 75% and 83%, respectively.
For `NC1CCC2CC12c1ccc(Cl)c(Cl)c1` (stereo not shown) [1-(3,4-dichlorophenyl)bicyclo[3.1.0]hexan-2-amine], the inhibition at 0.5 µM worked out at 34% in test [1], 5% in test [2] and 86% at dopamine (DA) transport [3].
Taken in the same sequence, the figures for `CN(C)C1CCC2(c3cccc4ccccc34)CC12` (stereo not shown) were 25%, 76% and 15%.
Turning to “N-methyl-5-p-tolylbicyclo[3.1.0]hexan-2-amine”, the “Uptake Inhibition % at 500 nM NE” value in test [1] is 81%. For the same compound, the “Uptake Inhibition % at 500 nM 5-HT” value in test [2] came out at 82%. The 50% inhibitory concentration (IC50) in test [5] was determined as 76 nM; in test [6] it was 74 nM; at dopamine (DA) transport [3] (setting [7]) it was 8730 nM. Also, at dopamine (DA) transport [3] (setting [8]), the “Uptake Inhibition % at 500 nM DA” value was found to be 23%.
As to `Cc1ccc(C23CCC(N)C2C3)cc1` (stereo not shown), the results for the inhibition at 0.5 µM (in test [1]; in test [2]; on dopamine (DA) transport [3]) were 50%, 25% and 31%, respectively.
For `CNC1CCC2CC21c1ccc(C)cc1` (stereo not shown) [N-methyl-1-p-tolylbicyclo[3.1.0]hexan-2-amine], in that order: 8%, 4% and 33%.
